Measurements published in the supplement of paper PMC10307832.

What was measured:
Experiment in all cases: relative viability (nuclei count vs DMSO), 5 days (fraction); higher = more cells survive
[1] = compound: C=CCc1cccc(/C=N/NC(=O)CN2CCN(Cc3ccccc3)CC2)c1O [PAC-1] + NC(=O)Nc1cc(-c2cccc(F)c2)sc1C(=O)N[C@H]1CCCNC1 [AZD7762] (partner 0.2 µM)
How it was run: (§1)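 Medians of duplicate plates are given as relative viability. That measure is the nuclei count in treated wells divided by the count in vehicle wells. Counts were taken on 4× images of lung cancer cell lines in 1536-well plates, 5 days after pin-tool dosing the day after seeding with one drug alone or a fixed anchor-drug dose plus five library-drug doses (not always all listed) in √10 steps.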

[2] = compound: C=CC(=O)Nc1cc(-n2c(=O)ccc3cnc4ccc(-c5ccc(NS(C)(=O)=O)cc5)cc4c32)ccc1C [BMX-IN-1] + CCNC(=O)c1noc(-c2cc(C(C)C)c(O)cc2O)c1-c1ccc(CN2CCOCC2)cc1 [Luminespib] (partner 0.01 µM)
How it was run: as §1

[3] = compound: C=CC(=O)N1CCC[C@@H](n2nc(-c3ccc(Oc4ccccc4)cc3)c3c(N)ncnc32)C1 [Ibrutinib] + Cc1nc(NC(=O)N2CCC[C@H]2C(N)=O)sc1-c1ccnc(C(C)(C)C(F)(F)F)c1 [Alpelisib] (partner 2 µM)
How it was run: as §1

[4] = compound: C=CC(=O)Nc1cc(-n2c(=O)ccc3cnc4ccc(-c5ccc(NS(C)(=O)=O)cc5)cc4c32)ccc1C [BMX-IN-1] + Nc1nc2[nH]cc(CCc3ccc(C(=O)N[C@@H](CCC(=O)O)C(=O)O)cc3)c2c(=O)[nH]1 [Pemetrexed] (partner 0.2 µM)
How it was run: as §1

Cell Line | relative viability ([1]; first compound 0.02 µM) | relative viability ([1]; first compound 0.06325 µM) | relative viability ([1]; first compound 0.2 µM) | relative viability ([1]; first compound 2 µM) | relative viability ([2]; first compound 0.02 µM) | relative viability ([2]; first compound 0.2 µM) | relative viability ([2]; first compound 0.6325 µM) | relative viability ([2]; first compound 2 µM) | relative viability ([3]; first compound 0.005 µM) | relative viability ([3]; first compound 0.01581 µM) | relative viability ([3]; first compound 0.05 µM) | relative viability ([3]; first compound 0.1581 µM) | relative viability ([3]; first compound 0.5 µM) | relative viability ([4]; first compound 0.02 µM) | relative viability ([4]; first compound 0.2 µM) | relative viability ([4]; first compound 0.6325 µM) | relative viability ([4]; first compound 2 µM)
NCI-H838 | 0.972 | 0.964 | 0.936 | 0.925 | 0.245 | 0.291 | 0.302 | 0.294 | 0.836 | 1 | 1.14 | 1.01 | 0.987 | 0.255 | 0.244 | 0.237 | 0.236
NCI-H1355 | 0.634 | 0.721 | 0.795 | 0.785 | 0.75 | 0.724 | 0.699 | 0.711 | – | 0.704 | 0.782 | 0.887 | 0.646 | 1.1 | 1.1 | 1.06 | 1.04
NCI-H1395 | 0.427 | 0.415 | 0.352 | 0.381 | 0.745 | 0.546 | 0.71 | 0.887 | 0.997 | 0.988 | 1.35 | 1.16 | 0.997 | 0.877 | 0.976 | 0.722 | 0.756
NCI-H1437 | 1.11 | 1.09 | 1.12 | 0.844 | 1.41 | 1.23 | 1.15 | 1.16 | 0.958 | 0.937 | 1.01 | 0.988 | 1.03 | 0.351 | 0.285 | 0.34 | 0.292
NCI-H1651 | 0.44 | 0.358 | 0.447 | 0.467 | 1.12 | 0.911 | 1.05 | 0.773 | 0.903 | 0.938 | 0.995 | 0.935 | 1.1 | 0.391 | 0.642 | 0.781 | 0.486
NCI-H1666 | 0.905 | 0.816 | 0.896 | 0.809 | 1.05 | 1.08 | 1.04 | 1 | 0.677 | 0.726 | – | 1.11 | 0.426 | 0.908 | 0.881 | 0.877 | 0.867
NCI-H1734 | 0.515 | 0.615 | 0.532 | 0.546 | 0.199 | 0.213 | 0.202 | 0.147 | 0.557 | 0.583 | 0.705 | 0.669 | 0.654 | 0.451 | 0.409 | 0.407 | 0.377
NCI-H1755 | 0.45 | 0.45 | 0.426 | 0.415 | 0.525 | 0.387 | 0.502 | 0.597 | 0.939 | 0.893 | 1.03 | 0.981 | 0.932 | 0.41 | 0.6 | 0.39 | 0.552
